Source: patent publication US20240218022A1, “ANTI-VISTA MACROCYCLIC PEPTIDES AND COMPOSITIONS” (BRISTOL-MYERS SQUIBB COMPANY, priority 2022, published 2024)
Starred links: 1 amine or outer side, 2 acyl side, 3 side chain; linkers in the order of their positions; H or OH if unused. Positions of bridges follow the written chain, without caps; N, C: chain ends. Non-standard residues stand in square brackets, D forms with d. Residues, ends and D or L forms follow the SMILES beside them. ξ: configuration not given here. Phe(4-COOH) = N[C@@H](Cc1ccc(C(=O)O)cc1)C(=O)O; γGlu = O=C(O)[C@H](CCC(=O)[*:2])N[*:1]; NMeIle(3ξ) = CCC(C)[C@H](NC)C(=O)O; Val(3-OH) = CC(C)(O)[C@H](N)C(=O)O; 4Pal = N[C@@H](Cc1ccncc1)C(=O)O; NMeE = CN[C@@H](CCC(=O)O)C(=O)O; Ahp(2) = CCCCC[C@H](N)C(=O)O; NMeNle = CCCC[C@H](NC)C(=O)O; Tle = CC(C)(C)[C@H](N)C(=O)O; NMeS = CN[C@@H](CO)C(=O)O; NHexGly = CCCCCCNCC(=O)O; NMeA = CN[C@@H](C)C(=O)O; Nle = CCCC[C@H](N)C(=O)O; Aun = NCCCCCCCCCCC(=O)O; Nva = CCC[C@H](N)C(=O)O; AEEA = NCCOCCOCC(=O)O

Molecular target: T1, mouse VISTA (mVISTA) (Mus musculus, UniProt Q9D659)
T1 construct: expressed in transfected cells; host or cells: Human embryonic kidney 293T cells
T1 sequence (Q9D659 33-308): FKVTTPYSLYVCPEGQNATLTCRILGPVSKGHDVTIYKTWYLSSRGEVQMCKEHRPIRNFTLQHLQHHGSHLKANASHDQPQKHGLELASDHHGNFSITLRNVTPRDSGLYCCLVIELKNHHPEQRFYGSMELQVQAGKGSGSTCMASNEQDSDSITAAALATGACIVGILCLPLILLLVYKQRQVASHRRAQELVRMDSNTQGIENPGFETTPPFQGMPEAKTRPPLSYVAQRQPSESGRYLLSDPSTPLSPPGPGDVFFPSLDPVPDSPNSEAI
Assay: Cell-Based Binding High-Content Assay For mVISTA (HC CBA mVISTA)
Settings: read-out: HC CBA mVISTA IC50
How it was run: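 mVISTA-293T, 4,000 cells/well; cpd ± washout step; biotin-peptide 2 nM final, 30 min RT; SA-Alexa 647 30 min; formaldehyde/Hoechst fix; HCS imaging; 4PL IC50.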

Structure (SMILES)	IC50 [nM]
CCCCCCN1CC(=O)N[C@@H](Cc2ccc(O)cc2)C(=O)N[C@@H](CCCC)C(=O)N[C@@H](CC(N)=O)C(=O)N[C@@H](CCCNC(=N)N)C(=O)N(C)[C@@H](C(C)CC)C(=O)N[C@@H](CCCCC)C(=O)N2CCC[C@H]2C(=O)N[C@@H](C(C)(C)C)C(=O)N[C@@H](CO)C(=O)N[C@H](C(=O)NCCOCCOCC(=O)N[C@@H](CCC(=O)NCCOCCOCC(=O)NCCCCCCCCCCC(=O)O)C(=O)O)CSCC(=O)N[C@@H](Cc2ccccc2)C(=O)N[C@@H](Cc2c[nH]c3ccccc23)C(=O)N[C@@H](CC(=O)O)C1=O (stereo partly shown) [compound 2246] ({CH2CO}-FWD[NHexGly]Y[Nle]NR[NMeIle(3ξ)][Ahp(2)]P[Tle]SC[AEEA][γGlu][AEEA][Aun]-OH; thioether N-14)	47
CCCCCCN1CC(=O)N[C@@H](Cc2ccc(O)cc2)C(=O)N[C@@H](CCCC)C(=O)N[C@@H](CC(N)=O)C(=O)N[C@@H](CCCNC(=N)N)C(=O)N(C)[C@@H](C)C(=O)N[C@@H](CCCCC)C(=O)N2CCC[C@H]2C(=O)N[C@@H](C(C)(C)C)C(=O)N[C@@H](CO)C(=O)N[C@H](C(=O)NCCOCCOCC(=O)N[C@@H](CCC(=O)NCCOCCOCC(=O)NCCCCCCCCCCC(=O)O)C(=O)O)CSCC(=O)N[C@@H](Cc2ccccc2)C(=O)N[C@@H](Cc2c[nH]c3ccccc23)C(=O)N[C@@H](CC(=O)O)C1=O [compound 2247] ({CH2CO}-FWD[NHexGly]Y[Nle]NR[NMeA][Ahp(2)]P[Tle]SC[AEEA][γGlu][AEEA][Aun]-OH; thioether N-14)	29.6
CCCCCCN1CC(=O)N[C@@H](Cc2ccc(O)cc2)C(=O)N[C@@H](CCCC)C(=O)N[C@@H](CC(N)=O)C(=O)N[C@@H](CCCNC(=N)N)C(=O)N(C)[C@@H](CCCC)C(=O)N[C@@H](CCCCC)C(=O)N2CCC[C@H]2C(=O)N[C@@H](C(C)(C)O)C(=O)N[C@@H](CO)C(=O)N[C@H](C(=O)NCCOCCOCC(=O)N[C@@H](CCC(=O)NCCOCCOCC(=O)NCCCCCCCCCCC(=O)O)C(=O)O)CSCC(=O)N[C@@H](Cc2ccccc2)C(=O)N[C@@H](Cc2c[nH]c3ccccc23)C(=O)N[C@@H](CC(=O)O)C1=O [compound 2250] ({CH2CO}-FWD[NHexGly]Y[Nle]NR[NMeNle][Ahp(2)]P[Val(3-OH)]SC[AEEA][γGlu][AEEA][Aun]-OH; thioether N-14)	50.4
CCCCCCN1CC(=O)N[C@@H](Cc2ccc(O)cc2)C(=O)N[C@@H](CCCC)C(=O)N[C@@H](CC(N)=O)C(=O)N[C@@H](CCCNC(=N)N)C(=O)N(C)[C@@H](CCCC)C(=O)N[C@@H](CCCCC)C(=O)N2CCC[C@H]2C(=O)N[C@@H](C(C)(C)C)C(=O)N[C@@H](CO)C(=O)N[C@H](C(=O)NCCOCCOCC(=O)N[C@@H](CCC(=O)NCCOCCOCC(=O)NCCCCCCCCCCC(=O)O)C(=O)O)CSCC(=O)N[C@@H](Cc2ccc(C(=O)O)cc2)C(=O)N[C@@H](Cc2ccc(O)cc2)C(=O)N[C@@H](CC(=O)O)C1=O [compound 2251] ({CH2CO}-[Phe(4-COOH)]YD[NHexGly]Y[Nle]NR[NMeNle][Ahp(2)]P[Tle]SC[AEEA][γGlu][AEEA][Aun]-OH; thioether N-14)	28.6
CCCCCCN1CC(=O)N[C@@H](Cc2ccc(O)cc2)C(=O)N[C@@H](CCCC)C(=O)N[C@@H](CC(N)=O)C(=O)N[C@@H](CCCNC(=N)N)C(=O)N(C)[C@@H](CCCC)C(=O)N[C@@H](CCCCC)C(=O)N2CCC[C@H]2C(=O)N[C@@H](C(C)(C)C)C(=O)N[C@@H](CO)C(=O)N[C@H](C(=O)NCCOCCOCC(=O)N[C@@H](CCC(=O)NCCOCCOCC(=O)NCCCCCCCCCCC(=O)O)C(=O)O)CSCC(=O)N[C@@H](Cc2ccc(O)cc2)C(=O)N[C@@H](Cc2ccc(O)cc2)C(=O)N[C@@H](CC(=O)O)C1=O [compound 2252] ({CH2CO}-YYD[NHexGly]Y[Nle]NR[NMeNle][Ahp(2)]P[Tle]SC[AEEA][γGlu][AEEA][Aun]-OH; thioether N-14)	12
CCCCCCN1CC(=O)N[C@@H](Cc2ccc(O)cc2)C(=O)N[C@@H](CCCC)C(=O)N[C@@H](CC(N)=O)C(=O)N[C@@H](CCCNC(=N)N)C(=O)N(C)[C@@H](CCCC)C(=O)N[C@@H](CCCCC)C(=O)N2CCC[C@H]2C(=O)N[C@@H](C(C)(C)C)C(=O)N[C@@H](CO)C(=O)N[C@H](C(=O)NCCOCCOCC(=O)N[C@@H](CCC(=O)NCCOCCOCC(=O)NCCCCCCCCCCC(=O)O)C(=O)O)CSCC(=O)N[C@@H](Cc2ccncc2)C(=O)N[C@@H](Cc2c[nH]c3ccccc23)C(=O)N[C@@H](CC(=O)O)C1=O [compound 2253] ({CH2CO}-[4Pal]WD[NHexGly]Y[Nle]NR[NMeNle][Ahp(2)]P[Tle]SC[AEEA][γGlu][AEEA][Aun]-OH; thioether N-14)	20.7
CCCCCCN1CC(=O)N[C@@H](Cc2ccc(O)cc2)C(=O)N[C@@H](CCCC)C(=O)N[C@@H](CC(N)=O)C(=O)N[C@@H](CCCNC(=N)N)C(=O)N[C@@H](CCCCN)C(=O)N[C@@H](CCCCC)C(=O)N2CCC[C@H]2C(=O)N[C@@H](C(C)(C)C)C(=O)N[C@@H](CC(=O)O)C(=O)N[C@H](C(=O)NCCOCCOCC(=O)N[C@@H](CCC(=O)NCCOCCOCC(=O)NCCCCCCCCCCC(=O)O)C(=O)O)CSCC(=O)N[C@@H](Cc2ccccc2)C(=O)N[C@@H](Cc2c[nH]c3ccccc23)C(=O)N[C@@H](CC(=O)O)C1=O [compound 2254] ({CH2CO}-FWD[NHexGly]Y[Nle]NRK[Ahp(2)]P[Tle]DC[AEEA][γGlu][AEEA][Aun]-OH; thioether N-14)	27.9
CCCCCCN1CC(=O)N[C@@H](Cc2ccc(O)cc2)C(=O)N[C@@H](CCCC)C(=O)N[C@@H](CC(N)=O)C(=O)N[C@@H](CCCNC(=N)N)C(=O)N(C)[C@@H](CCCC)C(=O)N[C@@H](CCCCC)C(=O)N2CCC[C@H]2C(=O)N[C@@H](C(C)(C)C)C(=O)N[C@@H](CO)C(=O)N[C@H](C(=O)NCCOCCOCC(=O)N[C@@H](CCC(=O)NCCOCCOCC(=O)NCCCCCCCCCCC(=O)O)C(=O)O)CSCC(=O)N[C@@H](Cc2ccc(C(=O)O)cc2)C(=O)N[C@@H](Cc2c[nH]c3ccccc23)C(=O)N[C@@H](CC(=O)O)C1=O [compound 2256] ({CH2CO}-[Phe(4-COOH)]WD[NHexGly]Y[Nle]NR[NMeNle][Ahp(2)]P[Tle]SC[AEEA][γGlu][AEEA][Aun]-OH; thioether N-14)	13.8
CCCCCCN1CC(=O)N[C@@H](Cc2ccc(O)cc2)C(=O)N[C@@H](CCCC)C(=O)N[C@@H](CC(N)=O)C(=O)N[C@@H](CCCNC(=N)N)C(=O)N(C)[C@@H](CCCC)C(=O)N[C@@H](CCCCC)C(=O)N2CCC[C@H]2C(=O)N[C@@H](C(C)(C)C)C(=O)N[C@@H](CO)C(=O)N[C@H](C(=O)NCCOCCOCC(=O)N[C@@H](CCC(=O)NCCOCCOCC(=O)NCCCCCCCCCCC(=O)O)C(=O)O)CSCC(=O)N[C@@H](Cc2ccncc2)C(=O)N[C@@H](Cc2ccc(O)cc2)C(=O)N[C@@H](CC(=O)O)C1=O [compound 2257] ({CH2CO}-[4Pal]YD[NHexGly]Y[Nle]NR[NMeNle][Ahp(2)]P[Tle]SC[AEEA][γGlu][AEEA][Aun]-OH; thioether N-14)	40.4

Results, then the molecule that gave them:

IC50 [nM]	Structure (SMILES)
27.8	CCCCCCN1CC(=O)N[C@@H](Cc2ccc(O)cc2)C(=O)N[C@@H](CCCC)C(=O)N[C@@H](CC(N)=O)C(=O)N[C@@H](CCCNC(=N)N)C(=O)N(C)[C@@H](CO)C(=O)N[C@@H](CCCCC)C(=O)N2CCC[C@H]2C(=O)N[C@@H](C(C)(C)C)C(=O)N[C@@H](CO)C(=O)N[C@H](C(=O)NCCOCCOCC(=O)N[C@@H](CCC(=O)NCCOCCOCC(=O)NCCCCCCCCCCC(=O)O)C(=O)O)CSCC(=O)N[C@@H](Cc2ccccc2)C(=O)N[C@@H](Cc2c[nH]c3ccccc23)C(=O)N[C@@H](CC(=O)O)C1=O [compound 2245] ({CH2CO}-FWD[NHexGly]Y[Nle]NR[NMeS][Ahp(2)]P[Tle]SC[AEEA][γGlu][AEEA][Aun]-OH; thioether N-14)
45.4	CCCCCCN1CC(=O)N[C@@H](Cc2ccc(O)cc2)C(=O)N[C@@H](CCCC)C(=O)N[C@@H](CC(N)=O)C(=O)N[C@@H](CCCNC(=N)N)C(=O)N(C)[C@@H](CCC(=O)O)C(=O)N[C@@H](CCCCC)C(=O)N2CCC[C@H]2C(=O)N[C@@H](C(C)(C)C)C(=O)N[C@@H](CO)C(=O)N[C@H](C(=O)NCCOCCOCC(=O)N[C@@H](CCC(=O)NCCOCCOCC(=O)NCCCCCCCCCCC(=O)O)C(=O)O)CSCC(=O)N[C@@H](Cc2ccccc2)C(=O)N[C@@H](Cc2c[nH]c3ccccc23)C(=O)N[C@@H](CC(=O)O)C1=O [compound 2248] ({CH2CO}-FWD[NHexGly]Y[Nle]NR[NMeE][Ahp(2)]P[Tle]SC[AEEA][γGlu][AEEA][Aun]-OH; thioether N-14)
26.8	CCCCCCN1CC(=O)N[C@@H](Cc2ccc(O)cc2)C(=O)N[C@@H](CCC)C(=O)N[C@@H](CC(N)=O)C(=O)N[C@@H](CCCNC(=N)N)C(=O)N(C)[C@@H](CCCC)C(=O)N[C@@H](CCCCC)C(=O)N2CCC[C@H]2C(=O)N[C@@H](C(C)(C)C)C(=O)N[C@@H](CC(=O)O)C(=O)N[C@H](C(=O)NCCOCCOCC(=O)N[C@@H](CCC(=O)NCCOCCOCC(=O)NCCCCCCCCCCC(=O)O)C(=O)O)CSCC(=O)N[C@@H](Cc2ccccc2)C(=O)N[C@@H](Cc2c[nH]c3ccccc23)C(=O)N[C@@H](CC(=O)O)C1=O [compound 2255] ({CH2CO}-FWD[NHexGly]Y[Nva]NR[NMeNle][Ahp(2)]P[Tle]DC[AEEA][γGlu][AEEA][Aun]-OH; thioether N-14)
36.9	CCCCCCN1CC(=O)N[C@@H](Cc2ccc(O)cc2)C(=O)N[C@@H](CCC)C(=O)N[C@@H](CC(N)=O)C(=O)N[C@@H](CCCNC(=N)N)C(=O)N(C)[C@@H](CCCC)C(=O)N[C@@H](CCCCC)C(=O)N2CCC[C@H]2C(=O)N[C@@H](C(C)(C)C)C(=O)N[C@@H](CO)C(=O)N[C@H](C(=O)NCCOCCOCC(=O)N[C@@H](CCC(=O)NCCOCCOCC(=O)NCCCCCCCCCCC(=O)O)C(=O)O)CSCC(=O)N[C@@H](Cc2ccccc2)C(=O)N[C@@H](Cc2c[nH]c3ccccc23)C(=O)N[C@@H](CC(=O)O)C1=O [compound 2258] ({CH2CO}-FWD[NHexGly]Y[Nva]NR[NMeNle][Ahp(2)]P[Tle]SC[AEEA][γGlu][AEEA][Aun]-OH; thioether N-14)
